From the supplement of paper PMC10307832

How the values were obtained:
Assay in all cases: relative viability (nuclei count vs DMSO), 5 days (fraction); higher = more cells survive
NCI-H2023 = system: NCI-H2023
Method in brief: (§1)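 Relative viability was taken as the ratio of nuclei in treated wells to nuclei in vehicle wells. Lung cancer cell lines in 1536-well plates received compounds by pin tool one day after seeding, either one drug alone or a fixed anchor-drug dose plus five library-drug doses (not always all listed) in √10 steps. Nuclei were counted on 4× images after 5 days of treatment, and values are medians of duplicate plates.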

NCI-H2009 = system: NCI-H2009
Method in brief: as §1

NCI-H23 = system: NCI-H23
Method in brief: as §1

SK-MES-1 = system: SK-MES-1
Method in brief: as §1

HOP-62 = system: HOP-62
Method in brief: as §1

LOU-NH91 = system: LOU-NH91
Method in brief: as §1

NCI-H2085 = system: NCI-H2085
Method in brief: as §1

NCI-H322M = system: NCI-H322M
Method in brief: as §1

ABC-1 = system: ABC-1
Method in brief: as §1

UMC-11 = system: UMC-11
Method in brief: as §1

HCC-78 = system: HCC-78
Method in brief: as §1

NCI-H1792 = system: NCI-H1792
Method in brief: as §1

ChaGo-K-1 = system: ChaGo-K-1
Method in brief: as §1

NCI-H1355 = system: NCI-H1355
Method in brief: as §1

NCI-H1437 = system: NCI-H1437
Method in brief: as §1

NCI-H1648 = system: NCI-H1648
Method in brief: as §1

NCI-H727 = system: NCI-H727
Method in brief: as §1

NCI-H2342 = system: NCI-H2342
Method in brief: as §1

NCI-H2170 = system: NCI-H2170
Method in brief: as §1

NCI-H1755 = system: NCI-H1755
Method in brief: as §1

LCLC-97TM1 = system: LCLC-97TM1
Method in brief: as §1

RERF-LC-KJ = system: RERF-LC-KJ
Method in brief: as §1

NCI-H650 = system: NCI-H650
Method in brief: as §1

NCI-H2405 = system: NCI-H2405
Method in brief: as §1

Compound `CCCCCCCCCCCC1=C(O)C(=O)C=C(O)C1=O` [Embelin] + O=C(c1cc(Cc2n[nH]c(=O)c3ccccc23)ccc1F)N1CCN(C(=O)C2CC2)CC1 [Olaparib] (partner 8 µM) has a relative viability (NCI-H2023; first compound 0.08 µM) of 0.432, a relative viability (NCI-H2023; first compound 0.8 µM) of 0.455 and a relative viability (NCI-H2023; first compound 2.53 µM) of 0.509. For the same compound, the relative viability (NCI-H2023; first compound 8 µM) was 0.229, the relative viability (NCI-H2009; first compound 0.08 µM) was 0.693 and the relative viability (NCI-H2009; first compound 0.8 µM) was 0.821. For the same compound, the relative viability (NCI-H2009; first compound 2.53 µM) was 0.71, the relative viability (NCI-H2009; first compound 8 µM) was 0.696 and the relative viability (NCI-H23; first compound 0.08 µM) was 0.298. The relative viability (NCI-H23; first compound 0.8 µM) was 0.257, the relative viability (NCI-H23; first compound 2.53 µM) was 0.344 and the relative viability (NCI-H23; first compound 8 µM) was 0.274. For the same compound, the relative viability (SK-MES-1; first compound 0.08 µM) was 0.757, the relative viability (SK-MES-1; first compound 0.8 µM) was 0.815 and the relative viability (SK-MES-1; first compound 2.53 µM) was 0.802. It also gave a relative viability (SK-MES-1; first compound 8 µM) of 0.214, a relative viability (HOP-62; first compound 0.08 µM) of 0.29 and a relative viability (HOP-62; first compound 0.8 µM) of 0.253. It also gave a relative viability (HOP-62; first compound 2.53 µM) of 0.354, a relative viability (HOP-62; first compound 8 µM) of 0.451 and a relative viability (LOU-NH91; first compound 0.08 µM) of 0.931. For the same compound, the relative viability (LOU-NH91; first compound 0.8 µM) was 1.01, the relative viability (LOU-NH91; first compound 2.53 µM) was 0.988 and the relative viability (LOU-NH91; first compound 8 µM) was 0.924. It also gave a relative viability (NCI-H2085; first compound 0.08 µM) of 0.727, a relative viability (NCI-H2085; first compound 0.8 µM) of 0.73 and a relative viability (NCI-H2085; first compound 2.53 µM) of 0.842. The relative viability (NCI-H2085; first compound 8 µM) was 0.777, the relative viability (NCI-H322M; first compound 0.08 µM) was 0.776 and the relative viability (NCI-H322M; first compound 0.8 µM) was 0.617. The relative viability (NCI-H322M; first compound 2.53 µM) was 0.75, the relative viability (NCI-H322M; first compound 8 µM) was 0.774 and the relative viability (ABC-1; first compound 0.08 µM) was 0.847. The relative viability (ABC-1; first compound 0.8 µM) was 0.988, the relative viability (ABC-1; first compound 2.53 µM) was 0.805 and the relative viability (ABC-1; first compound 8 µM) was 0.871. The relative viability (UMC-11; first compound 0.08 µM) was 0.338, the relative viability (UMC-11; first compound 0.8 µM) was 0.389 and the relative viability (UMC-11; first compound 2.53 µM) was 0.352. The relative viability (UMC-11; first compound 8 µM) was 0.331, the relative viability (HCC-78; first compound 0.08 µM) was 0.953 and the relative viability (HCC-78; first compound 0.8 µM) was 0.78. It also gave a relative viability (HCC-78; first compound 2.53 µM) of 0.961, a relative viability (HCC-78; first compound 8 µM) of 0.778 and a relative viability (NCI-H1792; first compound 0.08 µM) of 0.507. The relative viability (NCI-H1792; first compound 0.8 µM) was 0.42, the relative viability (NCI-H1792; first compound 2.53 µM) was 0.547 and the relative viability (NCI-H1792; first compound 8 µM) was 0.278. It also gave a relative viability (ChaGo-K-1; first compound 0.08 µM) of 0.464, a relative viability (ChaGo-K-1; first compound 0.8 µM) of 0.319 and a relative viability (ChaGo-K-1; first compound 2.53 µM) of 0.441. The relative viability (ChaGo-K-1; first compound 8 µM) was 0.45, the relative viability (NCI-H1355; first compound 0.08 µM) was 0.73 and the relative viability (NCI-H1355; first compound 0.8 µM) was 0.675. For the same compound, the relative viability (NCI-H1355; first compound 2.53 µM) was 0.869, the relative viability (NCI-H1355; first compound 8 µM) was 0.733 and the relative viability (NCI-H1437; first compound 0.08 µM) was 0.611. For the same compound, the relative viability (NCI-H1437; first compound 0.8 µM) was 0.685, the relative viability (NCI-H1437; first compound 2.53 µM) was 0.639 and the relative viability (NCI-H1437; first compound 8 µM) was 0.495. The relative viability (NCI-H1648; first compound 0.08 µM) was 1, the relative viability (NCI-H1648; first compound 0.8 µM) was 0.904 and the relative viability (NCI-H1648; first compound 2.53 µM) was 1.14. It also gave a relative viability (NCI-H1648; first compound 8 µM) of 1.21, a relative viability (NCI-H727; first compound 0.08 µM) of 0.757 and a relative viability (NCI-H727; first compound 0.8 µM) of 0.621. It also gave a relative viability (NCI-H727; first compound 2.53 µM) of 0.777, a relative viability (NCI-H727; first compound 8 µM) of 0.633 and a relative viability (NCI-H2342; first compound 0.08 µM) of 0.482. For the same compound, the relative viability (NCI-H2342; first compound 0.8 µM) was 0.432, the relative viability (NCI-H2342; first compound 2.53 µM) was 0.459 and the relative viability (NCI-H2342; first compound 8 µM) was 0.427. It also gave a relative viability (NCI-H2170; first compound 0.08 µM) of 0.569, a relative viability (NCI-H2170; first compound 0.8 µM) of 0.554 and a relative viability (NCI-H2170; first compound 2.53 µM) of 0.586. For the same compound, the relative viability (NCI-H2170; first compound 8 µM) was 0.592, the relative viability (NCI-H1755; first compound 0.08 µM) was 0.986 and the relative viability (NCI-H1755; first compound 0.8 µM) was 0.879. It also gave a relative viability (NCI-H1755; first compound 2.53 µM) of 0.901, a relative viability (NCI-H1755; first compound 8 µM) of 0.849 and a relative viability (LCLC-97TM1; first compound 0.08 µM) of 0.38. For the same compound, the relative viability (LCLC-97TM1; first compound 0.8 µM) was 0.462, the relative viability (LCLC-97TM1; first compound 2.53 µM) was 0.445 and the relative viability (LCLC-97TM1; first compound 8 µM) was 0.45. The relative viability (RERF-LC-KJ; first compound 0.08 µM) was 0.846, the relative viability (RERF-LC-KJ; first compound 0.8 µM) was 0.956 and the relative viability (RERF-LC-KJ; first compound 2.53 µM) was 1.02. It also gave a relative viability (RERF-LC-KJ; first compound 8 µM) of 0.48, a relative viability (NCI-H650; first compound 0.08 µM) of 0.385 and a relative viability (NCI-H650; first compound 0.8 µM) of 0.407. For the same compound, the relative viability (NCI-H650; first compound 2.53 µM) was 0.371, the relative viability (NCI-H650; first compound 8 µM) was 0.381 and the relative viability (NCI-H2405; first compound 0.08 µM) was 0.872. For the same compound, the relative viability (NCI-H2405; first compound 0.8 µM) was 0.842, the relative viability (NCI-H2405; first compound 2.53 µM) was 0.909 and the relative viability (NCI-H2405; first compound 8 µM) was 0.863.
